What was measured:
[1] = test system: exudative age related macular degeneration; assay: Treatment of a patient with exudative age related macular degeneration; format: in vivo, human
Description: A patient suffering from exudative age related macular degeneration in the right eye is given a subretinal injection of a biodegradable implant containing 1 μg total of equimolar amounts of oligonucleotide pair 4 (SEQ ID NO: 36 and SEQ ID NO: 37) in a volume of 100 μl. The eye is monitored weekly for 16 weeks.
A patient is diagnosed with exudative age-related macular degeneration.
The patient is given an subconjunctival injection of a solution containing 10 mg of 1,1′-[1,4,phenylene-bis(methylene)]-bis-1,4,8,11-tetraazacyclotetradecane (AMD3100), see Bridger et al., US2004/0209921, incorporated by reference herein) in each eye once every two weeks for 6 months. The patient is monitored bimonthly and visual acuity tested.

[2] = test system: CXCR4 mRNA; assay: CXCR4 RNA expression in ARPE-19 cells by whole human genome array hybridization; format: cell-based; details: for expression of intact intracellular CXCR4 RNA: cells uninduced with t-BH, compared to cells untreated with siRNA or given control siRNA, FIG. 3
Description: To isolate RNA from cells, 1 ml Qiazol® (a phenol/guanidinium isothiocyanate-based RNAse inhibitory lysis buffer sold by Qiagen, Inc.) was added to the ARPE-19 cells and the lysates then scraped into 2 ml tubes. 200 μl of chloroform per ml of Qiazol® was then added, the tubes mixed and centrifuged at 12,000×g for 15 minutes at 4° C. The aqueous phase was removed and applied to an RNeasy® mini column (Qiagen), washed and the column eluted with water. Five micrograms of the eluate were used for subsequent RT-PCR reactions. RT-PCR reactions were carried out using the Stratascript® First Strand Synthesis System (Stratagene). The RNA was denatured at 65° C. for 5 minutes, cooled at RT for 10 minutes then incubated at 42° C. for 60 minutes with reverse transcriptase.
A whole human genome DNA oligonucleotide array (Agilent Technnologies, G4112A array) was used to hybridize against RNA samples prepared from ARPE-19 cells treated with t-BH. This 44K slide format contains a collection of 60-mer oligonucleotides with sequences representing over 41 K human genes and transcripts.
RNA labeling was performed using the Low RNA Input Fluorescent Linear Amplification kit (LIK®) from Agilent Technologies (#5184-3523) following the manufacturer's recommendations. Briefly, 200 ng of total RNA from the ARPE-19 cells isolated as described in Example 2 were reverse transcribed in a 20 μL volume using with 1 μL Moloney Murine Leukemia Virus reverse transcriptase (MMLV-RT) and 1.2 μL of T7 promoter primer in 1× First Strand Buffer at 40° C. for 2 hours. From the double-stranded DNA preparation, transcription and direct labeling were prepared in 80 μL at 40° C. for 2 hours using 0.8 μL of T7 RNA polymerase, 0.6 μL inorganic pyrrophosphatase, 2.4 μL of each Cy-dye-CTP at 10 mM (PerkinElmer/NEN Life Sciences Cyanine-3-CTP #NEL580 and Cyanine-5-CTP #NEL581) in 4% PEG solution and 1× Transcription buffer. Cyanine dyes are highly sensitive fluorescent dyes.
Amplified and labeled cRNA was purified on Rneasy® mini columns (Qiagen, Inc.) according to manufacturer's protocol. cRNA was quantified by absorbance at 260 nm, 550 nm and 650 nm. Once labeling is complete, both Cy3 and Cy5 RNA samples are combined and hybridized to the microarray using the Agilent In Situ Hybridization kit (#5184-3568) following Agilent's recommendations.
Briefly 750 ng of cyanine 3-labeled linearly amplified cRNA and 750 ng of cyanine 5-labeled linearly amplified cRNA are combined to 1× control targets, 0.5× fragmentation buffer. This 2× target solution is denaturated at 60° C. for 30 minutes and 1× hybridization buffer in a 500 μL final volume is added to terminate the fragmentation reaction.
The target solution is then dispensed onto the 44K microarray. Incubation time was 17 hours at 60° C. in a hybridization oven with rotation at 4 rpm (Agilent Technologies #G2545A). Washes were performed for 5 minutes in 6×SSPE, 0.005% N-lauroyl sarcosine at room temperature, then for 5 minutes in 0.06×SSPE, 0.005% N-lauroyl sarcosine at room temperature, and finally for 30 seconds in Agilent Stabilization and Drying Solution®. The dried slides were scanned using a microarray scanner.
Total RNA was isolated from the cells (uninduced with t-BH) and the amount of CXCR4 RNA determined by gene array hybridization. The amount of CXCR4 in the naïve cells are standardized as “100%”.

[3] = test system: ARPE-19 cells; assay: Oxidative stress/cell viability (WST) assay in ARPE-19 cells exposed to t-BH; format: cell-based
Description: ARPE 19 cells (American Type Tissue Collection (ATTC) Number CRL2302) were plated at a cell density of 6×10^4 cells per 10 cm tissue culture dish, in Delbecco's Modified Eagle's Medium (DMEM) F12 containing 10% fetal bovine serum (FBS) and 1% antibiotic/antimycotic solution (10,000 units of penicillin G (sodium salt), 10,000 μg/ml of streptomycin sulfate, and 25 μg/ml of amphotericin B in 0.85% saline) incubated at 37° C. overnight.
These oligonucleotides or control oligonucleotides (Stealth RNAi negative control Med GC (Invitrogen, Inc.)) were added in 1.5 ml of OptiMem® media (Gibco BRL) to a final concentration of 25 nM. In a separate equal volume of OptiMem® media, 15 μl of lipofectamine reagent (Lipofectamine® 2000, Invitrogen, Inc.) was similarly added to equal volume of OptiMem® media and incubated at room temperature for 5 minutes.
Both solutions were then mixed together and further incubated for 20 minutes at room temperature. The cells were washed once with OptiMem® media, the total volume of the mixture was brought up to 10 ml with OptiMem® media (Gibco BRL) and then added to the cells. Cells were permitted to incubate overnight at 37° C. 24 hours following transfection, the transfection mixture was removed and 10 ml of fresh DMEM F12 media added to the cells. […]
Cell viability was measured using the WST assay (Chemicon International, Inc.) according to the manufacturer's instructions. […] Thus, the formazan dye produced by viable cells can be quantified by a multiwell spectrophotometer (microplate reader) by measuring the absorbance of the dye solution at 440 nm.
In this case, 10 μl of WST-1 reagent was added to each well after 24 hours. The optimum assay development time was determined to be 1.5 hours. Plates were then read in a Spectramax M2 Platereader® at 450 nm. […]

[4] = Example 8, subconjunctival 10 mg each eye every two weeks for 6 months

`c1cc(CN2CCCNCCNCCCNCC2)ccc1CN1CCCNCCNCCCNCC1` [AMD3100, 1,1′-[1,4,phenylene-bis(methylene)]-bis-1,4,8,11-tetraazacyclotetradecane] was tested, and the “fluorescein angiography: leakage of blood into retinal tissues” value ([1]; Example 8, end of six-month treatment) was “no detectable leakage of blood into retinal tissues”, the “visibly apparent extent of retinal degeneration” value ([1]; Example 8, end of six-month treatment versus beginning of study) was “no increase in the visibly apparent extent of retinal degeneration” and the “increase in visual acuity, left eye” value [1, 4] was “one”. For the same compound, the “increase in visual acuity, right eye” value [1, 4] was “two”.

For `CC(C)(C)OO` [t-BH, tertiary-butylhydroperoxide], the “expression of CXCR4 RNA over baseline” value ([2]; ARPE-19 cells, immediately after six hours' incubation with t-BH) was 30 fold, the “increase in expression of CXCR4 RNA over baseline” value ([2]; ARPE-19 cells, immediately after three hours' exposure to t-BH, untreated cells as baseline) was 20 fold and the “reduction in CXCR4 expression after recovery” value ([2]; t-BH for three hours, then further three hours in t-BH-free medium) was “almost no reduction in CXCR4 expression”. The “decrease in CXCR4 RNA after recovery” value ([2]; t-BH for three hours, then further twenty four hours in t-BH-free medium, versus levels immediately following exposure) was “approximately 35%”, the “cells surviving for at least 24 hours” value ([3]; ARPE-19 cells exposed to t-BH for 3 hours, then non t-BH-containing media) was “approximately 70%” and the cell death ([3]; ARPE-19 cells exposed to t-BH for 6 hours) was “cell death by 24 hours”.

With “Pair 1: anti-CXCR4 double-stranded siRNA, SEQ ID NO: 10 and SEQ ID NO: 11 (chain 1 AACAGUGGAAGAAAGCUAGGGGCUC; chain 2 GAGGCCCUAGCUUUCUUCCACUGUU; listed as RNA, chemistry not given here)” the “expression of intact intracellular CXCR4 RNA” value [2] was “reduce the expression of intact intracellular CXCR4 RNA” and the “inhibition of cell death induced by oxidative stress (WST cell viability)” value ([3]; ARPE-19 cells, 300 uM t-BH for 6 hours, siRNA at 10 nM or 25 nM, FIG. 2) was “inhibits the cell death induced by oxidative stress (exposure to 300 uM t-BH) in a dose-dependent fashion”.

“Pair 2: anti-CXCR4 siRNA, SEQ ID NO: 12 and SEQ ID NO: 13 (chain 1 AACAGUGGAAGAAAGCUAGGGCCUC; chain 2 GAGGCCCUAGCUUUCUUCCACUGUU; listed as RNA, chemistry not given here)” was tested, and the “expression of intact intracellular CXCR4 RNA” value [2] was “reduce the expression of intact intracellular CXCR4 RNA”.

“Pair 3: anti-CXCR4 siRNA, SEQ ID NO: 14 and SEQ ID NO: 15 (chain 1 CUUGGAGUGUGACAGCUUGGAGAUG; chain 2 CAUCUCCAAGCUGUCACACUCCAAG; listed as RNA, chemistry not given here)” was tested, and the “expression of intact intracellular CXCR4 RNA” value [2] was “reduce the expression of intact intracellular CXCR4 RNA”.

With “Pair 4: anti CXCR4 siRNA, SEQ ID NO: 36 and SEQ ID NO: 37 (chain 1 CCCACCAUCUACUCCAUCAUCUUCU; chain 2 AGAAGAUGAUGGAGUAGAUGGUGGG; listed as RNA, chemistry not given here)” the “extent of macular degeneration” value ([1]; Example 6, end of the 16 week period) was “no increase in the extent of macular degeneration is observed” and the “improvement in visual acuity” value ([1]; Example 6, right eye, subretinal biodegradable implant, 1 μg total, by week 3, maintained for 16 weeks) was “two”.
